# Laboratory results taken from article PMC5743200 (Journal of medicinal chemistry, 2017).
# “Also recorded” adds a separate entry of the source.
# Columns and labels:
# HK853 D411N = assay: Thermal shift assay; conditions: D411N alone Tm 67 °C; inhibitor 1 mM; no significant change
# HSP90α = HSP90α (Homo sapiens, UniProt P07900); assay: HSP90 inhibition assay, fluorescence polarization Hsp90α kit; format: binding
# WT HK853 = assay: Thermal shift assay; conditions: WT HK853 alone Tm = 70 °C; inhibitor 1 mM
# HK853 = HK853 (Thermotoga maritima, UniProt Q9WZV7); assay: Inhibition of HK853 activity, BODIPY-ATPγS competition, in-gel fluorescence; format: biochemical; conditions: for IC50 values (μM) (95% confidence interval), n = 2: HK853 inhibitory activity, value (95% confidence interval)
smiles,measurement,setting,value
"CCCN(CCC)c1[nH]cnc2ncnc1-2 [Compound 1, 6-N,N-dipropyl adenine]",change in the Tm value of HK853 D411N,HK853 D411N,≤ 2 °C
"c1ccc(CCNc2ncnc3[nH]cnc23)cc1 [Compound 3, 6-N-phenylethyladenine]",IC50,HSP90α,≤ 1250 µM
"CC1CC(Nc2ncnc3nc[nH]c23)CC(C)(C)C1 (stereo not drawn) [Compound 4, 6-N,N-(3,3,5-trimethylcyclohexyl) adenine]",IC50,HSP90α,≤ 1250 µM
"Nc1ncnc2c1ncn2[C@@H]1O[C@H](COP(=O)(O)OP(=O)(O)O)[C@@H](O)[C@H]1O [Compound 6, ADP, reference compound]",Tm of WT HK853 in the presence of compound,WT HK853,80 °C
same,change in the Tm value of HK853 D411N,HK853 D411N,≤ 2 °C
"OC[C@H]1O[C@@H](n2cnc3c(NCCc4ccccc4)ncnc32)[C@H](O)[C@@H]1O [Compound 10, 6-N-phenylethyladenosine]","HK853 inhibition, result in words",HK853,negligible activity
same,fold decreased potency,"HK853; HK853, riboside 10 versus lead 3",> 20 fold
"Nc1nc(N)c2nc[nH]c2n1 [Compound 13, 2-aminoadenine]","HK853 inhibition, result in words",HK853,negligible activity
"Nc1nc(N)c2ncn([C@@H]3O[C@H](CO)[C@@H](O)[C@H]3O)c2n1 [Compound 14, aminoadenosine]","HK853 inhibition, result in words",HK853,negligible activity
"Nc1nc(Cl)c2ncn([C@@H]3O[C@H](CO)[C@@H](O)[C@H]3O)c2n1 [Compound 20, 2-amino,6-chloropurine ribose]","HK853 inhibition, result in words",HK853,negligible activity
"Nc1nc2ncnc-2c[nH]1 [Compound 21, 2-aminopurine]","HK853 inhibition, result in words",HK853,low affinity; also recorded: negligible activity
"c1ccc(Nc2ncnc3[nH]cnc23)cc1 [Compound 22, 6-anilinopurine]",fold superior potency compared to 3,HK853; HK853,~20 fold
same,fold superior potency compared to 9,HK853; HK853,~60 fold
"OC[C@H]1O[C@@H](n2cnc3c(Nc4ccccc4)ncnc32)[C@H](O)[C@@H]1O [Compound 23, 6-anilinopurine ribose]","HK853 inhibition, result in words",HK853,failed to inhibit
same,"IC50 values (μM) (95% confidence interval), n = 2",HK853,No Inhibition
"Cn1cnc2ncnc(N)c21 [Compound 26, 7-N-methyladenine]","HK853 inhibition, result in words",HK853,failed to show any activity
same,"IC50 values (μM) (95% confidence interval), n = 2",HK853,No Inhibition
"Cn1cnc2nc(Cl)nc(N)c21 [Compound 28, 2-chloro,7-N-methyladenine]","HK853 inhibition, result in words",HK853,inactive
same,"IC50 values (μM) (95% confidence interval), n = 2",HK853,No Inhibition
"Nc1ncnc2[nH]nnc12 [Compound 30, 8-azadenine]","HK853 inhibition, result in words",HK853,minimal activity
"Nc1nc2[nH]cnc2c(=O)[nH]1 [Guanine, reference compound]","HK853 inhibition, result in words",HK853,neither guanine or guanosine inhibited HK853
"Nc1nc2c(ncn2[C@@H]2O[C@H](CO)[C@@H](O)[C@H]2O)c(=O)[nH]1 [Guanosine, reference compound]","HK853 inhibition, result in words",HK853,neither guanine or guanosine inhibited HK853
same,"IC50 values (μM) (95% confidence interval), n = 2",HK853,No Inhibition
"O=c1[nH]cnc2c1ncn2[C@@H]1O[C@H](CO)[C@@H](O)[C@H]1O [Inosine, reference compound]","IC50 values (μM) (95% confidence interval), n = 2",HK853,No Inhibition
